The text below walks through data of article PMC6187632, “A glutaredoxin domain fused to the radical-generating subunit of ribonucleotide reductase (RNR) functions as an efficient RNR reductant” (The Journal of Biological Chemistry, 2018).

The target of series [1] is T1, F. ignava RNR holoenzyme (NrdA + NrdB) (Falseniella ignava, UniProt K1LAT4).
T1 construct: gene HMPREF9707_01368; E. coli BL21(DE3); active complex alpha2beta2; with Ribonucleoside-diphosphate reductase subunit alpha
T1 sequence (K1LAT4 1-496): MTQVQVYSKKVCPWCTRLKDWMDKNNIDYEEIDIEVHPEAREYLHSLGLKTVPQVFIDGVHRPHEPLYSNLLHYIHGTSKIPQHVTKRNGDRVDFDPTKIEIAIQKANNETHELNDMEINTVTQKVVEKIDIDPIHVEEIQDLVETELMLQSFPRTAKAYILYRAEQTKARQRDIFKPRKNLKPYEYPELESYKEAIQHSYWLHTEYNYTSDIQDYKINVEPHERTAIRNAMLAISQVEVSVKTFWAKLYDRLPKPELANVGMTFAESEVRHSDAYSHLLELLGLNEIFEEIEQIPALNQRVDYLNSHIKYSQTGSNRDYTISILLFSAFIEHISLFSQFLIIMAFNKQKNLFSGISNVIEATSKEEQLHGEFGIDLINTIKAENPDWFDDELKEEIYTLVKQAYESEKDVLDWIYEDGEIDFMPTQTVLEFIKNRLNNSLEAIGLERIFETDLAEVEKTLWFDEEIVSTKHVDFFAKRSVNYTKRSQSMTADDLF
T1 sequence (K1MC37 1-567 partner): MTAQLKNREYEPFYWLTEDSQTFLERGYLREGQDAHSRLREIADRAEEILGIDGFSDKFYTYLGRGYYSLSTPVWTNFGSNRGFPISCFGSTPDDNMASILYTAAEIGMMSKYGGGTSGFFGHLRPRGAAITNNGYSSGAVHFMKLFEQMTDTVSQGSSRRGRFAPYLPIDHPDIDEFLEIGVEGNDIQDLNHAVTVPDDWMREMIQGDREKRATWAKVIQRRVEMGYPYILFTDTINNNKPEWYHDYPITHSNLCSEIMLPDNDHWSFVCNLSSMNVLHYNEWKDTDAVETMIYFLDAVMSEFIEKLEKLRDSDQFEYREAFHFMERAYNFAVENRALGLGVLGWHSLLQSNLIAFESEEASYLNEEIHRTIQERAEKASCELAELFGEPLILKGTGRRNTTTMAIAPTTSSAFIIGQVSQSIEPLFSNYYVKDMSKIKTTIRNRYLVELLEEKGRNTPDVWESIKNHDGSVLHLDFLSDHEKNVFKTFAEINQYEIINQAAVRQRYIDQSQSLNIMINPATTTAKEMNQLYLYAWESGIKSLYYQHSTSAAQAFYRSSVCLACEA
Nature of the series: RNR activity (dGDP formation by HPLC). Type of series: biochemical.

Series [2] has as its target T2, F. ignava NrdB (Grx::NrdB fusion protein, NrdBi) (Falseniella ignava, UniProt K1LAT4).
T2 construct: gene HMPREF9707_01368; full-length 496-residue fusion (Grx 4-61, ATP cone 84-169, NrdB core); E. coli BL21(DE3); dimer-tetramer equilibrium
Nature of the series: biochemical. Format: binding.

Series [3] addresses T3, heterologous F. ignava NrdA/L. blandensis NrdB holoenzyme (Leeuwenhoekiella blandensis, UniProt A3XHF9).
T3 construct: gene MED217_17135; mixed-species complex; F. ignava NrdA His6-tagged, E. coli; with Ribonucleoside-diphosphate reductase subunit alpha (Falseniella ignava CCUG 37419)
T3 sequence (A3XHF9 1-427): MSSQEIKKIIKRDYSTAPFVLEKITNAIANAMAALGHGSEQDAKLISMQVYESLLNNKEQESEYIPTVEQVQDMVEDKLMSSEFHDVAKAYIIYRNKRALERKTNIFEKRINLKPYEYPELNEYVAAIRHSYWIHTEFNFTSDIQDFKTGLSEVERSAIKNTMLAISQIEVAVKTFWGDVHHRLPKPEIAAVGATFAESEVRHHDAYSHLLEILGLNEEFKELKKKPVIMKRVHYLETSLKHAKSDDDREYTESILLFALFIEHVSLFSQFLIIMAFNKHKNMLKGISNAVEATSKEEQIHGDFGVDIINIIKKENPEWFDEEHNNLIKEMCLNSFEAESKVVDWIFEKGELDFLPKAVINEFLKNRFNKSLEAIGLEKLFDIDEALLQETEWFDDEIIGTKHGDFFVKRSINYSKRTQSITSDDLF
T3 sequence (K1MC37 1-567 partner): T1 sequence (K1MC37 1-567 partner)
Briefly: RNR activity (dGDP formation by HPLC). Type of series: biochemical. Particulars: GDP substrate, 2 mM dTTP, pH 8, room temperature; allosteric inhibition via L. blandensis NrdB ATP cone.

Series [4] concerns the target T1, F. ignava RNR holoenzyme (NrdA + NrdB). Nature of the series: RNR activity. Format: biochemical. Conditions: weaker inhibition than dATP; ATP cone of NrdB.
For series [5], the target named is T2, F. ignava NrdB (Grx::NrdB fusion protein, NrdBi). Briefly: glutaredoxin activity, NADPH consumption at […] nm (GSH reductase coupled). Conditions: 4 mM GSH, 0.4 mM NADPH, pH 8.0, room temperature; Grx domain; artificial substrate. Type of series: biochemical.
Series [6] concerns the target T4, F. ignava NrdB (Grx::NrdB fusion protein, NrdBi) (Falseniella ignava, UniProt K1LAT4, C15S).
T4 construct: gene HMPREF9707_01368; full-length 496-residue fusion (Grx 4-61, ATP cone 84-169, NrdB core); E. coli BL21(DE3); dimer-tetramer equilibrium
The description is as above. Format: biochemical. Conditions: 4 mM GSH, 0.4 mM NADPH, pH 8.0, room temperature; Grx domain, monothiol mechanism.

The target in series [7] is Facklamia ignava NrdBΔGrx (NrdB lacking the Grx domain) (Facklamia ignava). Nature of the series: GEMMA (gas-phase electrophoretic macromolecule analysis); NrdB deletion proteins analysed with and without 50 uM dATP (the text does not tell the two conditions apart); 20 mM ammonium acetate pH 7.8, 1 mM DTT, 0.005% Tween 20; step: dimers to tetramer.
Series [8] concerns the molecule itself. Briefly: GEMMA (gas-phase electrophoretic macromolecule analysis); no effector; 0.05 mg/ml protein (0.025 mg/ml of each in mixtures), 20 mM ammonium acetate pH 7.8, 1 mM DTT, 0.005% Tween 20, room temperature.
Series [9] concerns the molecule itself. Nature of the series: SEC; Superdex 200 10/300, 0.1 mM dATP in the mobile phase; 50 mM KCl, 10 mM MgCl2, 0.1 mM DTT, 50 mM Tris-HCl pH 7.6, room temperature; single subunits 5 and 10 uM, mixture 10 and 20 uM of each.
Series [10] concerns the molecule itself. Briefly: SEC; Superdex 200 10/300, no effector; 50 mM KCl, 10 mM MgCl2, 0.1 mM DTT, 50 mM Tris-HCl pH 7.6, room temperature; NrdA 5 and 10 uM, NrdB 1.25-10 uM, mixture 10 uM of each. In general terms: In gel filtration, larger molecules generally elute earlier.

On to `Nc1ncnc2c1ncn2[C@H]1C[C@H](O)[C@@H](COP(=O)(O)OP(=O)(O)OP(=O)(O)O)O1` [dATP], for which the results for the Ki in series [1] and in [3] were 1.3 ± 0.23 µM and ~70 µM, respectively. In addition, in series [2], binding was characterised by a dissociation constant (Kd) of 0.4 µM. On to `Nc1ncnc2c1ncn2[C@H]1C[C@H](O)[C@@H](COP(=O)(O)OP(=O)(O)O)O1` [dADP], for which binding in series [2] was characterised by a dissociation constant (Kd) of 5.8 µM. Also, in [4], the RNR activity entry is “Titration with dADP inhibited the WT enzyme activity (Fig. S2)”. `OCCSSCCO` [2-hydroxyethyl disulfide]: the Km (usually the substrate concentration at which the rate is half of its maximum) in series [5] stood at 600 ± 90 µM; in series [6], 1300 ± 240 µM. For the molecule “Facklamia ignava NrdBΔGrx (NrdB lacking the Grx domain) (domain or fragment)”, the stoichiometry N (in general, the number of molecules, sites or subunits per partner or assembly) in series [7] worked out at 4. With `Nc1ncnc2c1ncn2[C@@H]1O[C@H](COP(=O)(O)OP(=O)(O)OP(=O)(O)O)[C@@H](O)[C@H]1O` [ATP], binding in series [2] was characterised by a dissociation constant (Kd) of 6.8 µM.

B1: Facklamia ignava NrdB (Grx::ATP-cone::NrdB fusion protein, NrdBi) (enzyme, UniProt K1LAT4 1-496, looked up)
chain: T1 sequence (K1LAT4 1-496)
notes: NrdB (NrdBi) of Facklamia ignava CCUG 37419, 496 residues: Grx domain (residues 4-61), ATP cone (residues 84-169), then the NrdB proper; amplified from genomic DNA with primers from the start ATG to the stop codon; a thrombin cleavage site follows the His6 tag; Expressed with 0.5 mM MnSO4; holds a Mn(III)/Mn(IV) cofactor; Dimer or tetramer by condition; also called WT NrdB; source: E. coli …
In the case of B1, the “stoichiometry N” value amounted to 2 in [8] and 4 in series [9].

B2: Facklamia ignava NrdA (NrdAi) (enzyme, UniProt K1MC37 1-567, looked up)
chain: T1 sequence (K1MC37 1-567 partner)
notes: NrdA (NrdAi), catalytic subunit of the class I ribonucleotide reductase of Facklamia ignava CCUG 37419; amplified from genomic DNA with primers from the start ATG to the stop codon; a thrombin cleavage site follows the His6 tag; the form rests on the printed primers (ATG to stop); source: E. coli BL21(DE3), pET-28a(+), purified (HisTrap nickel-Sepharose, Superdex 200, phenyl-Sepharose)
Consider B2, for which, in series [10], the “stoichiometry N” value came to 2.
